{"source": "patent US20240166626A1", "about": "“Compounds and Methods for Preventing, Treating, or Ameliorating Airway Disease” (THOMAS JEFFERSON UNIVERSITY, priority 2021, published 2024)", "biological_target": "T1, GRK2 (Homo sapiens, UniProt P25098)", "T1 sequence (P25098 1-689)": "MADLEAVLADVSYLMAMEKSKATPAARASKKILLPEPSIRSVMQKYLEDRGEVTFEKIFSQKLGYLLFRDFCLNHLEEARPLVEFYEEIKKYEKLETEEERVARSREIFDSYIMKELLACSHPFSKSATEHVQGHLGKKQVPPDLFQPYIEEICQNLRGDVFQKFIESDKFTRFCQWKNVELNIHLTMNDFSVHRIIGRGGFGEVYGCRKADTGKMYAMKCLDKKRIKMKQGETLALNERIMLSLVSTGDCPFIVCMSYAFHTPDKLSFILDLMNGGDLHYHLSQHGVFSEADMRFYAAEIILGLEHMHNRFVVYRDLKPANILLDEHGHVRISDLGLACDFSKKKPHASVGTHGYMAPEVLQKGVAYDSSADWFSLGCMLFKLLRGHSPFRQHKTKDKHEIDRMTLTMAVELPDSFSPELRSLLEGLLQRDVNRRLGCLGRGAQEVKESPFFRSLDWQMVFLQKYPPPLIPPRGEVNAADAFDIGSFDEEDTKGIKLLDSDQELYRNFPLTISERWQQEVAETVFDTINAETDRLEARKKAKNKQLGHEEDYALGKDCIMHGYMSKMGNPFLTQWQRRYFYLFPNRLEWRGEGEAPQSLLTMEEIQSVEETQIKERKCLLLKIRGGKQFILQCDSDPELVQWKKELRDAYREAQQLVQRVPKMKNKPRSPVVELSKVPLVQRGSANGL", "test": "In vitro tubulin phosphorylation assay with purified GRK2", "type": "biochemical", "details": "10 μM DFPQ, 60-minute time course, FIG. 3C", "description": "FIGS. 3A-3D: DFPQ inhibits GRK-mediated phosphorylation of the β2AR. FIG. 3A: Representative time course of agonist promoted phosphorylation of the β2AR. […] Cells were lysed and the FLAG-β2AR was immunoprecipitated. Phosphorylation at […] and 356 was analyzed by western blot using a pSer^355/356 antibody while total β2AR was measured using a β2AR C-terminal antibody. The western blot is representative of at least 3 experiments and is quantified in FIG. 3B. FIG. 3C: […] FIG. 3D: Bar graphs represent pixel densitometry of radiolabeled tubulin at the 60 min timepoint from 4 experiments. […]® ADRB2 cells (DiscoveRx) were maintained with the AssayCompleteTM Cell Culture kit (DiscoveRx catalog #92-[…]). […] Cells were read every three minutes for 18 minutes on a PolarStar Optima plate reader (BMG) to establish peak signal. […] Luminescence was determined at room temperature (23-25° C.) on a PolarStar Optima plate reader (BMG). […] Relative assay bias was calculated from the ratio of normalized cAMP and arrestin recruitment responses. […] BRET was measured using a Tecan Infinite F500 microplate reader. […] Bound [35 S]GTPγS was collected by rapid filtration on GF/B filters, washed 4 times with 4 ml of cold GTPγS wash buffer and analyzed by liquid scintillation counting. […] Immunoprecipitated proteins were separated by SDS-PAGE and analyzed by western blot using a β2AR C-terminal tail or phospho-specific antibody. […]", "data": [{"smiles": "Fc1ccc(Nc2nc(NC3CCCCC3)c3ccccc3n2)cc1F", "note": "[DFPQ, N^4-cyclohexyl-N^2-(3,4-difluorophenyl)quinazoline-2,4-diamine]", "values": [{"measurement": "phosphorylation of tubulin by GRK2", "result": "unaffected"}]}]}
